Test results: patent US20170275298A1, “INHIBITORS OF THE RENAL OUTER MEDULLARY POTASSIUM CHANNEL” (Merck Sharp & Dohme Corp., priority 2014, published 2017)

Molecular target: T1, hROMK (hKir1.1) (Homo sapiens, UniProt P48048)
T1 construct: expressed in transfected cells
T1 sequence (P48048 1-391): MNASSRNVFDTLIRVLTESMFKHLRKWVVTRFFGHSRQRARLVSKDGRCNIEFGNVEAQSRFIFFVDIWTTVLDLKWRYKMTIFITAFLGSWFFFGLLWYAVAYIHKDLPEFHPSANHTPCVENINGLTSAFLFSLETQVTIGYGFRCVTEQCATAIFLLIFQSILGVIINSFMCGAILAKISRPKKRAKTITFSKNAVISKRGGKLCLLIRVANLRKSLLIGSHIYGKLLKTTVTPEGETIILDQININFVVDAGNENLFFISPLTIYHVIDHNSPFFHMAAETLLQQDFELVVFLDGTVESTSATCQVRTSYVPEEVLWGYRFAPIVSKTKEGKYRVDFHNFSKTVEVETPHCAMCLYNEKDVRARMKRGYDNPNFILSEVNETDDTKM
Assay: Thallium Flux Assay (ROMK channel functional thallium flux assay)
Type: cell-based
Settings: HEK293 cells stably expressing hROMK (hKir1.1); FluxOR thallium flux, FLIPR-Tetra, 30 min compound incubation; read-out: ROMK TI IC50
Description: The following Thallium Flux Assay was performed on each of the final product compounds in the Examples.
HEK293 cells stably expressing hROMK (hKir1.1) were grown at 37° C. in a 10% CO2 humidified incubator in complete growth media: Dulbecco's Modified Eagle Medium supplemented with non-essential amino acids, Penicillin/Streptomycin/Glutamine, G418 and FBS. At >80% confluency, the media was aspirated from the flask and rinsed with 10 mL calcium/magnesium-free PBS. […] To dislodge the cell, the side of the flask was gently banged with one's hand. The cells completely titrated and then the cells were transferred to 25 mL complete media, centrifuged at 1,500 rpm for 6 min followed by resuspension in complete growth media and determine cell concentration. […] Under ideal growth conditions and appropriate tissue culture practices, this cell line is stable for 40-45 passages.
• FluxOR™ Reagent (Component A) • FluxOR™ Assay Buffer (Component B)—10× Concentrate • PowerLoad™ Concentrate (Component C)—100× Concentrate • Probenecid (Component D)—Lyophilized sample is kept at −20° C. Water soluble, 100× after solubilization in 1 mL water. […] Store at 4° C. • Thallium sulfate (Tl2SO4) Concentrate (Component G)—50 mM in water. Store at 4° C. • DMSO (dimethyl sulfoxide, Component H)—1 mL (100%)
Can be stored at room temperature • Stimulant Buffer (prepared at 5× final concentration in 1×FluxOR™ Chloride-Free Buffer): 7.5 mM thallium sulfate and 0.75 mM potassium sulfate (to give a final assay concentration of 3 mM Thallium/0.3 mM potassium). Store at 4° C. when not in use. If kept sterile, this solution is good for months.
The ROMK channel functional thallium flux assay was performed in 384 wells, using the FLIPR-Tetra instrument. HEK-hKir1.1 cells were seeded in Poly-D-Lysine microplates and kept in a 37° C.-10% CO2 incubator overnight. On the day of the experiment, the growth media was replaced with the FluxOR™ reagent loading buffer and incubated, protected from light, at ambient temperature (23-25° C.) for 90 min. The loading buffer was replaced with assay buffer±test compound followed by 30 min incubation at ambient temperature, where the thallium/potassium stimulant was added to the microplate.
1. Seed HEK-hKir1.1 cells (50 μl at 20,000 cells/well) in 384-well PDL coated Microplates 2. Allow cells to adhere overnight in humidified 37° C./10% CO2 incubator 3. Completely remove cell growth media from microplate and replace with 25 μl loading buffer 4. Incubate Microplate at room temperature, protected form light, for 90 min 5. Remove loading buffer and replace with 25 μl 1× Assay Buffer±test compound. 6. Incubate microplate at room temperature, protected from light, for 30 min 7. […] Excitation=400 nm, Emission=460 & 580 nm. Collect data for ˜10 min.
The fluorescence intensity of wells containing 3 μM of a standard control ROMK inhibitor of the present invention was used to define the ROMK-sensitive component of thallium flux. Fluorescence in the presence of test compounds was normalized to control values to provide % fluorescence change.

SMILES	IC50
Cc1c([C@@H](O)CN2CCC3(CC2)CCN(c2cnccn2)CC3)ccc2c1COC2=O [Example 116, (R)-5-(1-hydroxy-2-(9-(pyrazin-2-yl)-3,9-diazaspiro[5.5]undecan-3-yl)ethyl)-4-methylisobenzofuran-1(3H)-one]	6.28 nM
Cc1c(CCN2CCC3(CC2)CCN(c2ccc(=O)n(C)n2)C3=O)ccc2c1COC2=O [Example 20, 8-(2-(4-methyl-1-oxo-1,3-dihydroisobenzofuran-5-yl)ethyl)-2-(1-methyl-6-oxo-1,6-dihydropyridazin-3-yl)-2,8-diazaspiro[4.5]decan-1-one]	51.2 nM
Cc1c([C@@H](O)CN2CCC3(CC2)CCN(c2cnc(C(F)(F)F)cn2)CC3)ccc2c1COC2=O [Example 125, (R)-5-(1-hydroxy-2-(9-(5-(trifluoromethyl)pyrazin-2-yl)-3,9-diazaspiro[5.5]undecan-3-yl)ethyl)-4-methylisobenzofuran-1(3H)-one]	492 nM
Cc1c([C@@H](O)CN2CCC3(CC2)CN(c2ccc(=O)n(C)n2)CCO3)ccc2c1COC2=O [Example 17, (R)-6-(9-(2-hydroxy-2-(4-methyl-1-oxo-1,3-dihydroisobenzofuran-5-yl)ethyl)-1-oxa-4,9-diazaspiro[5.5]undecan-4-yl)-2-methylpyridazin-3(2H)-one]	88.3 nM
Cn1nc(N2CCC3(CCN(CCc4ccc(-n5cnnn5)nn4)CC3)C2=O)ccc1=O [Example 21, 8-(2-(6-(1H-tetrazol-1-yl)pyridazin-3-yl)ethyl)-2-(1-methyl-6-oxo-1,6-dihydropyridazin-3-yl)-2,8-diazaspiro[4.5]decan-1-one]	568 nM
Cc1c([C@@H](O)CN2CCC3(CC2)CCN(c2nccs2)CC3)ccc2c1COC2=O [Example 137, (R)-5-(1-hydroxy-2-(9-(thiazol-2-yl)-3,9-diazaspiro[5.5]undecan-3-yl)ethyl)-4-methylisobenzofuran-1(3H)-one]	283 nM
Cc1c([C@@H](O)CN2CCC3(CC2)CC(=O)N(c2ccncc2)C3)ccc2c1COC2=O [Example 79, (R)-8-(2-hydroxy-2-(4-methyl-1-oxo-1,3-dihydroisobenzofuran-5-yl)ethyl)-2-(pyridin-4-yl)-2,8-diazaspiro[4.5]decan-3-one]	56.7 nM
Cc1cc(-n2cnnn2)ccc1[C@@H](O)CN1CCC2(CC1)CN(c1ccc(=O)n(C)n1)CCO2 [Example 19, (R)-6-(9-(2-hydroxy-2-(2-methyl-4-(1H-tetrazol-1-yl)phenyl)ethyl)-1-oxa-4,9-diazaspiro[5.5]undecan-4-yl)-2-methylpyridazin-3(2H)-one]	540 nM
Cc1c([C@@H](O)CN2CCC3(CC2)C[C@@H](C)N(c2ccc(=O)n(C)n2)C3=O)ccc2c1COC2=O [Example 98, (R)-8-((R)-2-hydroxy-2-(4-methyl-1-oxo-1,3-dihydroisobenzofuran-5-yl)ethyl)-3-methyl-2-(1-methyl-6-oxo-1,6-dihydropyridazin-3-yl)-2,8-diazaspiro[4.5]decan-1-one]	54.7 nM
COc1cc([C@@H](O)CN2CCC3(CC2)CCN(c2ccns2)C3=O)ncc1C#N [Example 70, (S)-6-(1-hydroxy-2-(2-(isothiazol-5-yl)-1-oxo-2,8-diazaspiro[4.5]decan-8-yl)ethyl)-4-methoxynicotinonitrile]	695 nM

Now from value to compound:

IC50	SMILES
676 nM	Cc1c([C@@H](O)CN2CCC3(CC2)CCN(c2cncnc2)C3=O)ccc2c1COC2=O [Example 37, (R)-8-(2-hydroxy-2-(4-methyl-1-oxo-1,3-dihydroisobenzofuran-5-yl)ethyl)-2-(pyrimidin-5-yl)-2,8-diazaspiro[4.5]decan-1-one]
962 nM	COc1cc(N2CCC3(CCN(C[C@H](O)c4ccc5c(c4C)COC5=O)CC3)C2)ccn1 [Example 12, (R)-5-(1-hydroxy-2-(2-(2-methoxypyridin-4-yl)-2,8-diazaspiro[4.5]decan-8-yl)ethyl)-4-methylisobenzofuran-1(3H)-one]
55.7 nM	COc1cc(N2CCC3(CCN(C[C@H](O)c4ccc5c(c4C)COC5=O)CC3)C2=O)ccn1 [Example 74, (R)-8-(2-hydroxy-2-(4-methyl-1-oxo-1,3-dihydroisobenzofuran-5-yl)ethyl)-2-(2-methoxypyridin-4-yl)-2,8-diazaspiro[4.5]decan-1-one]
424 nM	Cc1c([C@@H](O)CN2CCC3(CC2)CCN(c2ccc(=O)n(C)c2)C3=O)ccc2c1COC2=O [Example 82, (R)-8-(2-hydroxy-2-(4-methyl-1-oxo-1,3-dihydroisobenzofuran-5-yl)ethyl)-2-(1-methyl-6-oxo-1,6-dihydropyridin-3-yl)-2,8-diazaspiro[4.5]decan-1-one]
176 nM	Cc1c([C@@H](O)CN2CCC3(CC2)CCN(c2cnn(C)c(=O)c2)C3=O)ccc2c1COC2=O [Example 49, (R)-8-(2-hydroxy-2-(4-methyl-1-oxo-1,3-dihydroisobenzofuran-5-yl)ethyl)-2-(1-methyl-6-oxo-1,6-dihydropyridazin-4-yl)-2,8-diazaspiro[4.5]decan-1-one]
465 nM	Cc1c([C@@H](O)CN2CCC3(CC2)CCN(c2ccc(OC(F)(F)F)cc2)C3=O)ccc2c1COC2=O [Example 32, (R)-8-(2-hydroxy-2-(4-methyl-1-oxo-1,3-dihydroisobenzofuran-5-yl)ethyl)-2-(4-(trifluoromethoxy)phenyl)-2,8-diazaspiro[4.5]decan-1-one]
427 nM	Cc1c([C@@H](O)CN2CCC3(CC2)CCN(c2cc(C)c(=O)n(C)n2)C3=O)ccc2c1COC2=O [Example 52, (R)-2-(1,5-dimethyl-6-oxo-1,6-dihydropyridazin-3-yl)-8-(2-hydroxy-2-(4-methyl-1-oxo-1,3-dihydroisobenzofuran-5-yl)ethyl)-2,8-diazaspiro[4.5]decan-1-one]
82.5 nM	Cc1c([C@@H](O)CN2CCC3(CC2)CCN(c2cncc(F)c2)C3=O)ccc2c1COC2=O [Example 38, (R)-2-(5-fluoropyridin-3-yl)-8-(2-hydroxy-2-(4-methyl-1-oxo-1,3-dihydroisobenzofuran-5-yl)ethyl)-2,8-diazaspiro[4.5]decan-1-one]
379 nM	Cc1c([C@@H](O)CN2CCC3(CC2)CCN(c2cccnc2)C3=O)ccc2c1COC2=O [Example 35, (R)-8-(2-hydroxy-2-(4-methyl-1-oxo-1,3-dihydroisobenzofuran-5-yl)ethyl)-2-(pyridin-3-yl)-2,8-diazaspiro[4.5]decan-1-one]
37.1 nM	Cc1nsc(N2CCC3(CCN(C[C@H](O)c4ccc5c(c4C)COC5=O)CC3)C2=O)n1 [Example 71, (R)-8-(2-hydroxy-2-(4-methyl-1-oxo-1,3-dihydroisobenzofuran-5-yl)ethyl)-2-(3-methyl-1,2,4-thiadiazol-5-yl)-2,8-diazaspiro[4.5]decan-1-one]
561 nM	Cc1c([C@@H](O)CN2CCC3(CC2)CN(c2ccncc2)C(=O)O3)ccc2c1COC2=O [Example 86, (R)-8-(2-hydroxy-2-(4-methyl-1-oxo-1,3-dihydroisobenzofuran-5-yl)ethyl)-3-(pyridin-4-yl)-1-oxa-3,8-diazaspiro[4.5]decan-2-one]
66.6 nM	CCOc1nccc(N2CCC3(CCN(C[C@H](O)c4ccc5c(c4C)COC5=O)CC3)C2=O)n1 [Example 44, (R)-2-(2-ethoxypyrimidin-4-yl)-8-(2-hydroxy-2-(4-methyl-1-oxo-1,3-dihydroisobenzofuran-5-yl)ethyl)-2,8-diazaspiro[4.5]decan-1-one]
